Here are results for five compounds from publication PMC8600679, “Substituted Two- to Five-Ring Polycyclic Aromatic Compounds Are Potent Agonists of Atlantic Cod (Gadus morhua) Aryl Hydrocarbon Receptors Ahr1a and Ahr2a” (Environmental Science & Technology, 2021).

Details of series [1]: method as in PMID 29505926. Particulars: cited from earlier work; for agonistic potential, times higher than CHR: from TEF values; for toxic equivalent factor (TEF): toxic potential relative to the toxicity of BAP.
In a further series the target is T1, Atlantic cod Ahr2a (Gadus morhua, UniProt A0A6H1Z3G8).
T1 sequence (A0A6H1Z3G8 1-1127): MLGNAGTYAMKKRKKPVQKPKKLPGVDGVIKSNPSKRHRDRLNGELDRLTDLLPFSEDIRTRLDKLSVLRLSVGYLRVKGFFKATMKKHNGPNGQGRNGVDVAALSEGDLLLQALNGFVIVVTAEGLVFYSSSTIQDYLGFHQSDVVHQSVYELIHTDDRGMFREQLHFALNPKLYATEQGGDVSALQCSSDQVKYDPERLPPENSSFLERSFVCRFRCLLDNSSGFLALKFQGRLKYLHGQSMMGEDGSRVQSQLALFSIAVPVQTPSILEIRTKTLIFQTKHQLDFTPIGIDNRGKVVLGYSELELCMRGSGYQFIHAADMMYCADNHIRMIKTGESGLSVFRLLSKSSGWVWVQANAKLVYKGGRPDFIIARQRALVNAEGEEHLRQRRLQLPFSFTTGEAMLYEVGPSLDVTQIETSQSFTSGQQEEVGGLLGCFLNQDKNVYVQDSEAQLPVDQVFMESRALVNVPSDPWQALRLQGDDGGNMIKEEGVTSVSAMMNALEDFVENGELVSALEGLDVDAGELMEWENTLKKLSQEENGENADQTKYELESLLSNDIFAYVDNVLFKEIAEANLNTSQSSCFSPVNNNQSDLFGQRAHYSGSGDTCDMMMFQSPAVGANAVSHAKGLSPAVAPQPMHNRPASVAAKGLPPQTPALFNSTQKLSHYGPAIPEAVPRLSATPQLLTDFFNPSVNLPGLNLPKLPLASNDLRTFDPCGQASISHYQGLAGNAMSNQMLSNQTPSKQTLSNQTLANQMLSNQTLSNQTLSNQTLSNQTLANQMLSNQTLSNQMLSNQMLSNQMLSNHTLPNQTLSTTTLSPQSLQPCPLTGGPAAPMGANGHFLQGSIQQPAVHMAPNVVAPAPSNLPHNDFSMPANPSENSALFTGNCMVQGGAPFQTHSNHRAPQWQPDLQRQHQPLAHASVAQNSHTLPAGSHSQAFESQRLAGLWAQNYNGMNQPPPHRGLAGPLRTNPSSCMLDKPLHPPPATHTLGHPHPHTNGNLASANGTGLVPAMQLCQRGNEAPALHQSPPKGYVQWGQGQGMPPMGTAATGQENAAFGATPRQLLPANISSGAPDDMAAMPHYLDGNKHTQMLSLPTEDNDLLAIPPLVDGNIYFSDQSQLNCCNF
Put plainly: cell-based. The settings on record: for Ahr2a REP25: EC25 of TCDD divided by concentration of PAC giving 25% of TCDD response; for Efficacy compared to TCDD via Ahr2a: Welch's t-test, Supporting Table S6; for Activation of Ahr2a (agonist or not): in vitro transactivation.

For the next series, the target named is Atlantic cod Ahr1a (Gadus morhua, UniProt A0A6H1Z2L5). Put plainly: cell-based. The settings on record: for Ahr1a REP25: EC25 of TCDD divided by concentration of PAC giving 25% of TCDD response; for Efficacy compared to TCDD with Ahr1a: Welch's t-test, Supporting Table S6; for Activation of Ahr1a (agonist or not): in vitro transactivation.
Chain of Atlantic cod Ahr1a (A0A6H1Z2L5 1-957): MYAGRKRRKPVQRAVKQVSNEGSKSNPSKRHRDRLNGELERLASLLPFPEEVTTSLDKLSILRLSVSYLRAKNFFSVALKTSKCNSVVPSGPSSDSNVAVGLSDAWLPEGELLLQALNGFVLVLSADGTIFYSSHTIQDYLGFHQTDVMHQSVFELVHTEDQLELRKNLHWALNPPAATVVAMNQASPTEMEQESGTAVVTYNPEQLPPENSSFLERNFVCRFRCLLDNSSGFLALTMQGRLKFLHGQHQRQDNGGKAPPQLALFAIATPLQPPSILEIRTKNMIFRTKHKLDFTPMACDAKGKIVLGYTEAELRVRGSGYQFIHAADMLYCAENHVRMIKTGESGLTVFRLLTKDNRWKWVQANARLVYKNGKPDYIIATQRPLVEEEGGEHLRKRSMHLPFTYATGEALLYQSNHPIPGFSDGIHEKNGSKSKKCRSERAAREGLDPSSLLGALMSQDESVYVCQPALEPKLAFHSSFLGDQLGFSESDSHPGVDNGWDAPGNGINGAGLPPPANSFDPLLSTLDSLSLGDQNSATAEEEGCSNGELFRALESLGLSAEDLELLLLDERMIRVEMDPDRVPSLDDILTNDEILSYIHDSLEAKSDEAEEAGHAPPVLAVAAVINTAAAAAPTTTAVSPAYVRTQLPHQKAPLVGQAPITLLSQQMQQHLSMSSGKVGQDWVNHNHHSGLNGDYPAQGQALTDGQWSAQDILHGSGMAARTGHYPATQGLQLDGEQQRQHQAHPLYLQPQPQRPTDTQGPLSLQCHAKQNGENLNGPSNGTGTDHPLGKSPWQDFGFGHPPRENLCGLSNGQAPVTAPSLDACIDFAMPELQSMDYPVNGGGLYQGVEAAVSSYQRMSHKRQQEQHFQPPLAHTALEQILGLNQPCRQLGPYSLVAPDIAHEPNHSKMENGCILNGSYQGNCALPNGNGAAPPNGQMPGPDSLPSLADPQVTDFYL
Chain of Atlantic cod Ahr1a (A0A8C5CZZ9 1-645 partner): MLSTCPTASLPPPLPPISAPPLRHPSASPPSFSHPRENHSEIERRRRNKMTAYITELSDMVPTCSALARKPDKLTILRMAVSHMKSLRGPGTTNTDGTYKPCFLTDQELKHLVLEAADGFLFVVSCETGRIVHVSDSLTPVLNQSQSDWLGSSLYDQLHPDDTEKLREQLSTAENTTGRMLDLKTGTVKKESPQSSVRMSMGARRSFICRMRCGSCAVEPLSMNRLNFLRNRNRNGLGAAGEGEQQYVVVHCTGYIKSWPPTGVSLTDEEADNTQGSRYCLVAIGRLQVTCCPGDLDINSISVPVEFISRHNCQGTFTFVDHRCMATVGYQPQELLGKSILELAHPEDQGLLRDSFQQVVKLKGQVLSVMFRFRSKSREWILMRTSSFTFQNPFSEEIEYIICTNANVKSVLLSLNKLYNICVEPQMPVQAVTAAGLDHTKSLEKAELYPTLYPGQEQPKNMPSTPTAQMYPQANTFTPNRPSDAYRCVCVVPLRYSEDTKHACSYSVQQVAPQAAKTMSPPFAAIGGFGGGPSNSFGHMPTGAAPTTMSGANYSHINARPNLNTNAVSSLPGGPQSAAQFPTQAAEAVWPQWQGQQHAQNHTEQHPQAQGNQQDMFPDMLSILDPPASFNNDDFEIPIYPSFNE
A further series concerns COS-7 cells. Put plainly: Resazurin reduction viability assay. It is filed as cell-based, simian. Particulars: highest concentrations used; relative to 0.5% DMSO solvent control. The procedure:
COS-7 simian kidney cells were seeded onto 96 well plates (10 000 cells/well) in Dulbecco’s modified Eagle’s medium (DMEM) with phenol red, supplemented with 10% fetal bovine serum (FBS), 4 mM L-glutamate, 1 mM sodium pyruvate, and 100 U/mL penicillin–streptomycin (Merck KGaA, Darmstadt, Germany), and cultivated at 37 °C with 5% CO2 for 24 h. Cells were transiently co-transfected with a eukaryotic expression plasmid (pcDNA3.1/Zeo(+), 31 ng/well), pcDNA3.1/Zeo(+)-based plasmids encoding gmAhr1a or gmAhr2a (3 ng/well), gmArnt1 (6 ng/well),[37] a luciferase reporter plasmid containing four DREs (pGudLuc6.1, 30 ng/well), and a β-galactosidase normalization plasmid (pCMV-βGAL, 30 ng/well),[45],[46] using a Mirus TransIT LT-1 transfection reagent according to the recommendations of the supplier. COS-7 cells were seeded and cultivated in DMEM (4500 mg/L glucose), supplemented with 10% FBS, 1 mM sodium pyruvate, and 4 mM L-glutamine. In the exposure medium, FBS was substituted with 10% charcoal-stripped FBS (VWR International, Radnor). To create the exposure media with the highest test concentration, compounds solved in dimethyl sulfoxide (DMSO) were diluted 1:200 in exposure medium, resulting in exposure media with 1× test compound and 0.5% DMSO. The highest concentration exposure media were serially diluted five times (1:2 for the first dilution, then 1:5) in exposure medium supplemented with 0.5% DMSO. Following transfection, cells were incubated in exposure media containing PACs or solvent control (0.5% DMSO) for 24 h. Reporter gene assays were repeated at least three times and with three technical replicates per exposure. TCDD (30 pM to 100 nM) was used as a known agonist in each experiment. Absorbance and luminescence measurements were performed on an EnSpire Multimode plate reader (PerkinElmer, Waltham, MA). While no wavelength filtering was used to measure firefly luciferase activity by luminescence, absorbance measurements to quantify β-galactosidase activity were performed at 420 nm wavelength. The viability of exposed cells was evaluated using the resazurin reduction assay as previously described.[47],[48]
Recorded luminescence was normalized for variation in transfection efficiencies using β-galactosidase enzyme activity. The difference in normalized light units measured in lysates from exposed cells to solvent-exposed cells was calculated and expressed relative to the maximum response in TCDD-exposed cells. Response curves were prepared by nonlinear regression analyses in Prism v7 and used for the determination of half-maximal effective concentration values (EC50) and maximum efficacies (Emax). EC50 values were only determined for compounds that produced a sigmoidal concentration–response curve. Relative effect potencies 25 (REP25) were determined by dividing the EC25 of TCDD by the concentration of PAC necessary to produce a response equal to 25% of the response of TCDD with gmAhrs, essentially as described by Villeneuve et al. and Lam et al.[49],[50] The D’Agostino–Pearson (Ahr activation data) or Kolmogorov–Smirnov (viability data) normality tests were used to confirm the normal distribution of the data. One-way analysis of variance (ANOVA) and Dunnett′s test were used to compare responses at different concentrations of compounds and solvent control mediated via the same Ahr, in addition to comparing metabolic activity in PAC-exposed cells and cells exposed to solvent control in the resazurin reduction assay. Welch′s t-test was used to compare the maximum Ahr-mediated response and potency (Emax and EC50) between Ahr1a or Ahr2a produced by the same test compound (Prism v7).
On the technique in general: The colour change of resazurin is a common sign of viable cells or microbes.

For a further series, the system named is rat AHR. Set-up: method as in PMID 17941736, PMID 25108069. Particulars: H4IIE-luc reporter assay; cited from earlier work. (In a reporter assay the amount or activity of a reporter protein is the signal.)
[2] abbreviates: Ahr2a EC50 (nM), COS-7 cells, 24 h exposure.
[3] abbreviates: COS-7, read-out: Ahr2a Relative Emax (%).
Setting [4] is: Ahr1a EC50 (nM), COS-7 cells, 24 h exposure.
The mark [5] stands for this setting: COS-7, read-out: Ahr1a Relative Emax (%).
Where [6] appears, read: COS-7 cells, 24 h exposure, read-out: Ahr2a EC50.
Where [7] appears, read: Supplementary Table S5, read-out: Potency (EC50, nM) Ahr2a.
Setting [8] is: percent of maximum efficacy determined for TCDD, COS-7 cells, 24 h exposure, None = no agonistic response significantly different from solvent, read-out: Ahr2a Relative Emax (%).
[9] abbreviates: COS-7 cells, 24 h exposure, read-out: Ahr1a EC50.
Setting [10] is: Supplementary Table S5, read-out: Potency (EC50, nM) Ahr1a.
[11] abbreviates: percent of maximum efficacy determined for TCDD, COS-7 cells, 24 h exposure, None = no agonistic response significantly different from solvent, read-out: Ahr1a Relative Emax (%).

Read-outs that look alike come from different tables or passages of the source.

In the case of `Cc1cccc2c1ccc1c3ccccc3ccc21` [1-MC, 1-Methylchrysene], in series [1], the “agonistic potential, times higher than CHR” value is listed as 10 times and the “toxic equivalent factor (TEF)” value is recorded as 0.1. In addition, the half-maximal effective concentration (EC50) (in general, the concentration giving half of the maximal effect) on Atlantic cod Ahr2a (setting [2]) was found to be 172 nM. Besides, on Atlantic cod Ahr2a (setting [3]), the Emax (in general, the maximal effect, on the per cent scale that the assay sets) was found to be 43.6%. Further, on Atlantic cod Ahr2a, the “Ahr2a REP25” value is given as 0.022 and the “Efficacy compared to TCDD via Ahr2a” value is on record as “lower efficacies in comparison to TCDD”. For the same compound, the EC50 on Atlantic cod Ahr2a (Potency (EC50, nM) Ahr2a, Supplementary Table S5) is 172 nM. The compound also registered a half-maximal effective concentration (EC50) at Atlantic cod Ahr1a (setting [4]) of 175 nM. Also, the Emax at Atlantic cod Ahr1a (setting [5]) turned out to be 45.8%. Also, at Atlantic cod Ahr1a, the “Ahr1a REP25” value is recorded as 0.0070 and the “Efficacy compared to TCDD with Ahr1a” value is on record as “lower efficacies than TCDD”.

Consider `Cc1cc2ccccc2c2ccc3ccccc3c12` [5-MC, 5-Methylchrysene], for which the “agonistic potential, times higher than CHR” value in series [1] is 100 times. Besides, the “toxic equivalent factor (TEF)” value in series [1] is recorded as 1.0. At Atlantic cod Ahr2a (Ahr2a versus Ahr1a), the “fold higher REP25 with Ahr2a compared to Ahr1a” value is 5- to 10 fold. The concentration for a half-maximal effect (EC50) at Atlantic cod Ahr2a (setting [6]) was 193 nM; at Atlantic cod Ahr2a (setting [7]), 193 nM; on Atlantic cod Ahr1a (setting [9]), 596 nM; on Atlantic cod Ahr1a (setting [10]) it was 596 nM. For the same compound, the “Ahr2a REP25” value at Atlantic cod Ahr2a is 0.0495. On Atlantic cod Ahr2a, the “Efficacy compared to TCDD via Ahr2a” value was “lower efficacies in comparison to TCDD”. Moreover, the Emax stood at 68.4% at Atlantic cod Ahr2a (setting [8]) and 90.1% at Atlantic cod Ahr1a (setting [11]). Also, in the series with COS-7 cells, the “Metabolic activity (cell viability) of exposed COS-7 cells” value was “slight reduction in metabolic activities”. The “Ahr1a REP25” value on Atlantic cod Ahr1a is recorded as 0.00494. Besides, the “Efficacy compared to TCDD with Ahr1a” value at Atlantic cod Ahr1a is “efficacies similar to that of TCDD”.

As for `COc1cc2ccc3c4ccccc4ccc3c2cc1OC` [2,3-DMOC, 2,3-Dimethoxychrysene], the melting point (in general, the temperature, or range, at which the solid turns liquid) lay in the range of 212 to 213.5 °C. Further, the EC50 at Atlantic cod Ahr2a (setting [6]) is 359 nM. Further, on Atlantic cod Ahr2a, the “Ahr2a REP25” value worked out at 0.00911, the “Efficacy compared to TCDD via Ahr2a” value is on record as “lower efficacies in comparison to TCDD” and the “Activation of Ahr2a (agonist or not)” value is “activated the two Ahrs”. Further, on Atlantic cod Ahr2a (setting [7]), the EC50 is 359 nM. Besides, the Emax at Atlantic cod Ahr2a (setting [8]) was determined as 55%. For the same compound, the EC50 on Atlantic cod Ahr1a (setting [9]) amounted to 199 nM. Besides, on Atlantic cod Ahr1a, the “Ahr1a REP25” value turned out to be 0.0083, the “Efficacy compared to TCDD with Ahr1a” value is on record as “lower efficacies than TCDD” and the “Activation of Ahr1a (agonist or not)” value is “activated the two Ahrs”. In addition, the Emax at Atlantic cod Ahr1a (setting [11]) was found to be 77.5%.

For the compound `c1ccc2c(c1)ccc1c3ccccc3ccc21` [CHR, Chrysene], the “toxic equivalent factor (TEF)” value in series [1] is reported as 0.01. Moreover, the Emax on Atlantic cod Ahr2a (COS-7, Supplementary Table S5, read-out: Efficacy (Emax, %) Ahr2a) was determined as 3.6%. Moreover, the EC50 at Atlantic cod Ahr2a (setting [7]) was 3440 nM. At Atlantic cod Ahr2a, the “Efficacy compared to TCDD via Ahr2a” value is listed as “lower efficacies in comparison to TCDD” and the “Activation of Ahr2a (agonist or not)” value was “solely activate Ahr1a”. The “Ahr2a Relative Emax (%)” value at Atlantic cod Ahr2a (percent of maximum efficacy determined for TCDD, COS-7 cells, 24 h exposure, None = no agonistic response significantly different from solvent) is “None”. Further, the concentration for a half-maximal effect (EC50) on Atlantic cod Ahr1a (setting [9]) worked out at 481 nM. Besides, on Atlantic cod Ahr1a, the “Ahr1a REP25” value was found to be 0.00052, the “Efficacy compared to TCDD with Ahr1a” value is “lower efficacies than TCDD” and the “Activation of Ahr1a (agonist or not)” value is listed as “solely activate Ahr1a”. Also, on Atlantic cod Ahr1a (setting [10]), the concentration for a half-maximal effect (EC50) was 481 nM. In addition, the Emax on Atlantic cod Ahr1a (setting [11]) is 40.8%.

For `Clc1cc2c(cc1Cl)Oc1cc(Cl)c(Cl)cc1O2` [TCDD, 2,3,7,8-Tetrachlorodibenzo-p-dioxin, reference compound], the EC50 is 0.008 to 0.018 nM with rat AHR, 6.2 nM at Atlantic cod Ahr2a (setting [2]) and 1.7 nM on Atlantic cod Ahr1a (setting [4]). The Emax was found to be 99.4% on Atlantic cod Ahr2a (setting [3]) and 99.7% on Atlantic cod Ahr1a (setting [5]).
